Measured values published in patent publication EP0062319A1, “3-Methyl-1-(2-(3-naphthyloxy)-ethyl)-2-pyrazolin-5-one for the treatment of the metastasis and growth of tumour cells” (BAYER AG, priority 1981, dated 1982).

Experiments:
Metastase = conditions: literature, cited from earlier work
B-16a-Melanom-Zellen = conditions: literature; metastasis induced by intravenous B-16a melanoma cells; cited from earlier work
[1] = tested on: B-16a-amelanotischen Melanom-Zellen; assay: Metastasis of tail-vein injected B-16a melanoma cells (lung tumour colonies) in mice; type: in vivo, C57BL/6J Mäuse; conditions: Theophyllin 200 µg injected 1 h before the tumour cells; 5 x 10^4 cells i.v.; mean ± SEM, n = 6
Description: Wie bereits weiter oben festgestellt wurde, ist die Metastase […], die durch eine Reihe komplizierter Vorgänge dargestellt wird. Gegenwärtig finden zwei "Modell"-Systeme für die Untersuchung der in vivo-Metastase verbreitete Anwendung. Das erste Modellsystem umfaßt die subkutane Injektion der Tumorzellen in das Tier. Die subkutane Injektion der Tumorzellen und anschließende Entwicklung eines Primärtumors, gefolgt von spontaner Metastase, wird als "volle" Metastase betrachtet. Ein anderes Modellsystem umfaßt die Injektion der Tumorzellen durch die Schwanzvene. In Anbetracht der Komplexität der Metastase gilt die Schwanzvenen-Injektion als künstliches und nur partielles Modellsystem, da es nur die Vorgänge während des letzteren Teils der Metastase wiedergibt. Das Schwanzvenen-Modellsystem gilt jedoch auch als außerordentlich günstig im Hinblick auf eine Standardisierung der Versuchsbedingungen [vgl."Methods in Cancer Research", Kapitel VII, Academic Press, Inc., 1978].
Als Kontrolltiere wurden (unbehandelte) C57B1/6J-Mäuse nach folgender Arbeitsweise auf volle Metastase untersucht. Zellsuspensionen der B-16 - und 3LL-Karzinom-Zellen, die wie oben unter A und B beschrieben erhalten worden waren, wurden subkutan in die rechte Achselhöhlenregion der männlichen C57BL/6J-Mäuse injiziert (0,66 mm- = 26 gauge -Nadel; 0,2 ml). Injiziert wurden verschiedene Mengen der Zellsuspensionen im Bereich von 1 x 10^5 bis 1 x 10^6 Zellen. Versuche zur partiellen Metastase wurden in der Weise durchgeführt, daß Tumorzellen über die Schwanzvene in die (unbehandelten) Kontroll-Mäuse injiziert wurden. Die Tiere wurden unter identischen Bedingungen der Temperatur, Lichteinwirkungsdauer, Ernährung etc. gehalten. Nach einem Beobachtungszeitraum von 17 bis 30 Tagen wurden die für die volle Metastase und für die partielle Metastase verwendeten Tiere getötet, und die Lungen, Leber, Nieren, Milz und Gehirn-Gewebe wurde entnommen.
Das entnommene Gewebe wurde in Bouin-Lösung fixiert.
Die Zahl der metastatischen Knötchen in jedem Organ wurde mit Hilfe eines Bausch-und-Lomb Stereo-Zoom-Mikroskops bestimmt. Die Untersuchung der Kontroll- Mäuse auf metastatische Knötchen ergab bei 100 % der Tiere positive Befunde in bezug auf metastatische Lungentumoren; die Inkubationszeit für die Erzeugung solcher Metastasen betrug für die 3LL-Tumorzellen 17 bis 21 Tage und für die B-16 a -Tumorzellen 23 bis 30 Tage. In Leber, Nieren, Milz oder Gehirn-Gewebe wurden keine sichtbaren Knötchen beobachtet.
3 mg 3-Methyl-1-[2-(2-naphthyloxy)-ethyl]-2-pyrazolin-5-on wurden in 0,6 ml absolutem Ethylalkohol suspendiert. Das suspendierte Pyrazolon wurde durch Einstellen des pH auf 9,5 mit NaOH gelöst. […]

Lewis-Lungen-Karzinom = assay: Tumour incidence and final tumour weight of subcutaneous Lewis lung carcinoma in mice; type: in vivo, C57BL/6J Mäuse; conditions: killed day 22
Description: Die antineoplastische Wirksamkeit wurde außerdem durch direkte Messung des Wachstums der Tumorzellen in vitro in Gewebekulturen bestimmt. Diese Methode bedient sich des "Plating" oder Aufimpfens einer bekannten Anzahl von Tumorzellen auf ein Wachstumsmedium und der Bestimmung der Wirkung der Anwesenheit der zu prüfenden Verbindung auf die Tumorzellen-Proliferation. Schließlich wurde die antineoplastische Aktivität in vivo in der Weise bestimmt, daß den Mäusen subkutan Tumorzellen injiziert wurden und das Auftreten von Tumorzellenwachstum sowie das Gewicht der wachsenden Tumorzellen in unbehandelten Kontrolltieren und in mit der Pyrazolon-Verbindung behandelten Tieren bestimmt wurden.
3 mg 3-Methyl-1-[2-(2-naphthyloxy)-ethyl]-2-pyrazolin-5-on wurden in 0,6 ml Ethylalkohol gelöst, und die Lösung wurde mit konzentrierter Natronlauge auf einen pH von 9,5 eingestellt.
Syngeneischen C57BL/6J Wirts-Mäusen wurden 1 x 10^5 Lewis-Lungenkarzinom-Zellen (0,2 ml) subkutan in die Achselhöhlenregion injiziert. Nach einem Zeitraum von 24 Stunden wurde die Pyrazolon-Verbindung 21 Tage lang täglich verabreicht. Die Wirkung der Verabreichung von Theophyllin zusammen mit der Pyrazolon-Verbindung wurde ebenfalls untersucht. Während des Zeitraums wurden die Mäuse unter identischen Bedingungen der Temperatur, Lichteinwirkungsdauer, Ernährung etc. gehalten. Die Mäuse wurden 22 Tage nach der Injektion der Tumorzellen getötet und mittels einer Gesamt-Nekropsie auf die Anwesenheit subkutaner Tumoren untersucht. Vorhandene Tumoren wurden entfernt und auf einer Analysenwaage gewogen.

## CC(=O)Oc1ccccc1C(=O)O [Aspirin]
Metastase
  Metastase: gemischte Ergebnisse

## CCCCC[C@H](O)/C=C/[C@@H]1[C@H]2C/C(=C/CCCC(=O)O)O[C@H]2C[C@H]1O [Prostacyclin]
B-16a-Melanom-Zellen
  Metastase: verhindert werden kann

## Cn1c(=O)c2[nH]cnc2n(C)c1=O [Theophyllin, reference compound]
[1]
  Lungen-Tumor-Kolonien: 165 ± 38
Lewis-Lungen-Karzinom; 250 µg Theophyllin daily i.p. in 0,4 ml
  Tumor-Häufigkeit Anzahl: 9/12
Lewis-Lungen-Karzinom; 250 µg Theophyllin daily i.p.
  Tumor-Häufigkeit %: 75%
Lewis-Lungen-Karzinom; final tumour weight, 250 µg Theophyllin daily i.p.
  Gewicht: 1.58 ± 0.42 mg

## CC(=O)CC(c1ccccc1)c1c(O)c2ccccc2oc1=O (stereo not shown) [Warfarin]
Metastase; after intravenous injection of tumour cells and in spontaneously metastasising tumours
  antimetastatische Wirkungen: signifikante antimetastatische Wirkungen
